In ChEMBL document CHEMBL1201862, “PubChem BioAssay data set” (2004):
Active and inactive are the calls of the source.

Legend:
[1] = target: NAD-dependent protein deacylase sirtuin-5, mitochondrial (Homo sapiens, UniProt Q9NXA8); test: SIRT5 desuccinylase inhibitors, dose response, biochemical, fluorescence imaging, cherry-pick, set 5 (AID 720591);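 further: desuccinylation of succinyl peptide AMC substrate read as fluorescence after trypsin release; potency of inhibitors that lower fluorescence and may act on trypsin instead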
cells [2] = type: functional, cell-based
[3] = target: T1, Nuclear receptor subfamily 0 group B member 1 (Homo sapiens, UniProt P51843); type: functional, cell-based;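 further: HEK293T cells transfected with SF-1 and DAX-1 plus StAR promoter luciferase reporter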
T1 sequence (P51843 whole entry): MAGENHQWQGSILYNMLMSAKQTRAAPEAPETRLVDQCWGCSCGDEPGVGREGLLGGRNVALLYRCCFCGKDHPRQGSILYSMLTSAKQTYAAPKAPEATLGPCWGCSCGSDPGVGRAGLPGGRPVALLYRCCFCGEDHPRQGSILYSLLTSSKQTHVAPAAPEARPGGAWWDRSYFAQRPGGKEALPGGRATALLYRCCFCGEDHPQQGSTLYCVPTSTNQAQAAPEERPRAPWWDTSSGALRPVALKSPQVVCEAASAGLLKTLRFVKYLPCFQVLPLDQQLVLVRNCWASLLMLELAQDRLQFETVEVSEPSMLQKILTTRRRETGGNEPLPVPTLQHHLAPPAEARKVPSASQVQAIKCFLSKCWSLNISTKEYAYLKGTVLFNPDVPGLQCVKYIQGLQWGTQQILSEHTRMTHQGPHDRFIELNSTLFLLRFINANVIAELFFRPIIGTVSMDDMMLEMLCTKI

[4] = target: T2, DNA repair protein RAD52 homolog (Homo sapiens, UniProt P43351); type: functional, biochemical
T2 sequence (P43351 whole entry): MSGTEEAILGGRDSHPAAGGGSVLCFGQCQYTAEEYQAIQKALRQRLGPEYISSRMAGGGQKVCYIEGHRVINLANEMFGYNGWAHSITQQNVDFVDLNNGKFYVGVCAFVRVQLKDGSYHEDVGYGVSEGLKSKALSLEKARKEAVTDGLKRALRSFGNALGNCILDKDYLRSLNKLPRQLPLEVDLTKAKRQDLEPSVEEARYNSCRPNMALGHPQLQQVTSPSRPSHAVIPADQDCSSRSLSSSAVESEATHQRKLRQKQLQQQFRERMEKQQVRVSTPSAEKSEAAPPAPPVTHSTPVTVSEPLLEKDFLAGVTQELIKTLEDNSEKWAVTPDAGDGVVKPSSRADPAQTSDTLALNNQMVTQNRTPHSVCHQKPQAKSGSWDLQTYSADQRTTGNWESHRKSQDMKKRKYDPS

H9c2 = test: cells; type: functional, cell-based; conditions: Rattus norvegicus, H9c2, Myocardium;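 further: confirmatory concentration-response retest of ultra-high-throughput screening hits for modulation of myocardial damage; cell death induced by hydrogen peroxide oxidative stress; compound pretreatment for 60 min then peroxide exposure for 2 h; potency is for protecting the cells against peroxide damage rather than for killing them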
[5] = A549 cell cytotoxicity, dose response, cytotoxicity control, plate reader, cherry-pick, antagonist series (AID 743412); type: functional, cell-based
[6] = HepG2 cell cytotoxicity, dose response, cytotoxicity control, plate reader, cherry-pick, antagonist series (AID 743416); type: functional, cell-based
[7] = LGR2 antagonists, dose response, cell-based, HEK293, CRE-luciferase reporter, cherry pick, set 2 (AID 743343); type: functional;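 further: transfected cells were stimulated with diluted bursicon conditioned medium after compound addition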
[8] = target: T3, Disintegrin and metalloproteinase domain-containing protein 17 (Homo sapiens, UniProt P78536); test: exosite inhibitors of ADAM17, dose response, biochemical (AID 743260)
[9] = MC4R antagonists, dose response, counter-screen for LGR2 antagonist project, cell-based, plate reader, cherry pick (AID 743444); type: functional;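 further: transfected HEK 293 cells stimulated with alpha-MSH peptide; potency of inhibitors of the alpha-MSH evoked signal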
[10] = ADAM10 protease inhibitors, dose response, selectivity assay for ADAM17 exosite inhibitor project, biochemical, FRET peptide substrate, recombinant human ADAM10 (AID 743259);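 further: ADAM10 enzyme cleaving a FRET peptide substrate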
[11] = HEK293 cell cytotoxicity, dose response, cytotoxicity control, plate reader, cherry-picked samples (AID 743446); type: functional, cell-based
fMet-Leu-Phe receptor = target: T4, fMet-Leu-Phe receptor (Homo sapiens, UniProt P21462); test: FPR ligands, dose response (AID 519); type: functional
T4 sequence (P21462 whole entry): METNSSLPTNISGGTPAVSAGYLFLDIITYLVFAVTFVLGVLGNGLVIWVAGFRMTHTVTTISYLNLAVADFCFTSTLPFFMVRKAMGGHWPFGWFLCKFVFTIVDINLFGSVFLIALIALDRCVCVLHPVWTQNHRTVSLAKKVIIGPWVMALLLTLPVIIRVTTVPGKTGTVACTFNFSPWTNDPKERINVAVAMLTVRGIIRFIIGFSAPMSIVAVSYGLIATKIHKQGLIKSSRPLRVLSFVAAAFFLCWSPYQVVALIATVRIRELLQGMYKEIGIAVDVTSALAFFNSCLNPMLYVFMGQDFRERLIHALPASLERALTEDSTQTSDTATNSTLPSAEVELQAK

[12] = growth suppression of PTEN-null colon cells, dose response, cell-based, HCT116 PTEN knockout (AID 1047); type: functional;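 further: HCT116 colon tumor cells with PTEN knocked out; cells exposed to compound for 60 hours before readout; potency for loss of cell viability measured by luminescence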
[13] = growth suppression of beta-catenin-knockout colon cells, dose response, cell-based, HCT116, human colon tumor (AID 1045); type: functional;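 further: HCT116 colon tumor cells with beta catenin knocked out; cells exposed to compound for 60 hours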
[14] = target: T3, Disintegrin and metalloproteinase domain-containing protein 17; test: ADAM17 protease inhibitors, dose response, counter-screen for ADAM10 exosite inhibitor project, biochemical, quenched FRET substrate (AID 743253)
Major prion protein = Major prion protein (Homo sapiens, UniProt P04156); type: functional, cell-based
cells [15] = test: cells
cells [16] = type: functional, cell-based; remark: listed apart in the source
[17] = target: T5, Trace amine-associated receptor 1 (Homo sapiens, UniProt Q96RJ0); test: Fluorescence-based cell-based high throughput dose response assay to identify agonists of the human trace amine associated receptor 1 (TAAR1).; type: functional
T5 sequence (Q96RJ0 whole entry): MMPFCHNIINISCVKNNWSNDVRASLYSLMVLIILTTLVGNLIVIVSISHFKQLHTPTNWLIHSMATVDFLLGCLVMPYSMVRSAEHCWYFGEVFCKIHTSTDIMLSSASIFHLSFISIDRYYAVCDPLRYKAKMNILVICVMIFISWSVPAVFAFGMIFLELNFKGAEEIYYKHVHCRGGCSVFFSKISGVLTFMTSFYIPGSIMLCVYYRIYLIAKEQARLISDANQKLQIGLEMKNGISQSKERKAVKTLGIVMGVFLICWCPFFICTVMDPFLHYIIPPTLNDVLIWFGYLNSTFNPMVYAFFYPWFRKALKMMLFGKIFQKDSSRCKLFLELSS

[18] = target: T5, Trace amine-associated receptor 1; test: Counterscreen for agonists of the human trace amine associated receptor 1 (hTAAR1): Fluorescence-based cell-based high throughput dose response assay to identify hTAAR1 agonist that also desensitize TAAR1 receptor response.; type: functional
cells [19] = type: functional, cell-based; remark: listed apart in the source
Beta-lactamase [20] = target: Beta-lactamase (Salmonella choleraesuis (strain SC-B67), UniProt Q5J463); test: Epi-absorbance-based counterscreen for selective VIM-2 inhibitors: dose response biochemical high throughput screening assay to identify inhibitors of TEM-1 serine-beta-lactamase.
Beta-lactamase [21] = target: T6, Beta-lactamase (Pseudomonas aeruginosa, UniProt Q79MP6); test: IMP-1 metallo-beta-lactamase inhibitors, dose response, selectivity assay for VIM-2 inhibitor project, biochemical, epi-absorbance (AID 1920)
Beta-lactamase [22] = target: T6, Beta-lactamase; test: […] counterscreen for selective VIM-2 inhibitors: dose response biochemical high throughput screening assay to identify inhibitors of IMP-1 metallo-beta-lactamase.
Cytochrome P450 2C19 = Cytochrome P450 2C19 (Homo sapiens, UniProt P33261); test: Cytochrome panel assay with activity outcomes. Panel member name: p450-cyp2c19 Compounds with AC50 equal or less than 10 uM are considered active; type: functional; conditions: read-out: AC50
Cytochrome P450 1A2 = target: T7, Cytochrome P450 1A2 (Homo sapiens, UniProt P05177);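 further: PubChem cytochrome P450 panel assay, CYP1A2 panel member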
T7 sequence (P05177 whole entry): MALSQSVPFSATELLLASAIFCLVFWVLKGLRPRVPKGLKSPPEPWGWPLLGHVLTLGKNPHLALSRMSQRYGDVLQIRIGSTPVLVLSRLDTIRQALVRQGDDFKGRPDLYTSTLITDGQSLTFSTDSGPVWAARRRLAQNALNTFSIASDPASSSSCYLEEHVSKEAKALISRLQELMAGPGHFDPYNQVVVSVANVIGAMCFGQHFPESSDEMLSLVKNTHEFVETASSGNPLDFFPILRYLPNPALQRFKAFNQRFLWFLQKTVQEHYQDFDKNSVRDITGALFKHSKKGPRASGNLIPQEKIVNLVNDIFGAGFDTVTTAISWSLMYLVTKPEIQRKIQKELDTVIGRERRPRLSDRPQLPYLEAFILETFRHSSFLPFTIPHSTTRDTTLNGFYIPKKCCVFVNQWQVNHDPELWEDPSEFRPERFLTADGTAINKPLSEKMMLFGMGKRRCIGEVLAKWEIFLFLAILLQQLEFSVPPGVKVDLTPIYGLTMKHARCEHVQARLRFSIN

Cytochrome P450 3A4 = Cytochrome P450 3A4 (Homo sapiens, UniProt P08684);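 further: CYP3A4 tested as one member of a cytochrome P450 panel screen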
[23] = Shn3 3'UTR reporter inhibitors, dose response, cell-based, Clone20 osteoblasts, firefly luciferase, cherry-picked (AID 624132); type: functional;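 further: firefly luciferase luminescence from reporter carrying the Shn3 3'UTR in osteoblasts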
[24] = HepG2 cell cytotoxicity, dose response, cytotoxicity control for Shn3 inhibitor project, CellTiter-Glo, cherry-picked (AID 624134); type: functional, cell-based
[25] = control 3'UTR Renilla luciferase suppression, dose response, counter-screen for Shn3 inhibitor project, cell-based, Clone20-Shn3RL, cherry-picked (AID 624133); type: functional
HEK293 [26] = test: cells; conditions: Homo sapiens
HEK293 [27] = test: cells; conditions: Homo sapiens; remark: listed apart in the source
[28] = target: Luciferin 4-monooxygenase (Photinus pyralis, UniProt P08659); test: firefly luciferase enzyme inhibitors, dose response, biochemical, luminescence (AID 1891)
[29] = Luminescence Cell-Based Dose Confirmation HTS to Identify Inhibitors of Platelet Dense Granule Release. [Related pubchem assays: 1663 (Primary HTS), 1678 (Summary of Project)]; type: functional
[30] = Luminescence Cell-Based Dose Retest to Confirm Inhibitors of Cancer Stem Cells. [Related pubchem assays (depositor defined):AID2717, AID2721]; type: functional; conditions: Homo sapiens

For OC(CNCc1ccccc1)COc1ccccc1 (stereo unspecified), the AC50 [1] was > 30 µM (inactive).

In the case of CCc1ccccc1NC(=O)CNC(=O)CNC(=O)c1cccs1, the AC50 [1] is reported as 25.1 µM (active).

With Cc1cccc(NC(=O)c2ccc3c(=O)n4c(nc3c2)CCCCC4)n1 the IC50 (cells [2]) was > 67.5 µM (inactive) and the IC50 [3] was > 0.834 µM (active).

For CN1Cc2c(N3CCOCC3)nc3sc(C(=O)c4ccccc4)c(N)c3c2CC1(C)C, the AC50 [4] was 32.1 µM (active).

With CCc1nc2ccc(C(=O)Nc3cc(-c4ccccc4)ccc3OC)cn2c1N(C)Cc1nccs1 the IC50 (H9c2) was > 79 µM (inactive), the AC50 [5] was 21.6 µM (active) and the AC50 [6] was 51.1 µM (active). The AC50 [7] was 9.18 µM (active), the IC50 [8] was > 69.5 µM (inactive) and the AC50 [9] was 18.4 µM (active). For the same compound, the IC50 [10] was > 69.5 µM (inactive) and the AC50 [11] was 18.1 µM (active).

With Cc1ccsc1C1C2=C(O)CC(C)(C)CC2=Nc2ncnn21 (stereo unspecified) the Ki (fMet-Leu-Phe receptor) was 12.5 µM (active).

With Cc1ccc2c(CN(C)Cc3ccccc3)cc(=O)oc2c1 the IC50 (cells [2]) was > 67.6 µM (inactive) and the IC50 [3] was > 67.6 µM (inactive).

For N#Cc1c(Cl)nc(N/N=C/c2ccccc2)c(Cl)c1Cl, the EC50 [12] was 12.1 µM (active), the EC50 [13] was 6.92 µM (active) and the IC50 [14] was > 69.5 µM (inactive).

In the case of Cc1ccc(Cc2c(-c3ccco3)nc3ccc(Br)cn23)cc1, the IC50 (Major prion protein) is reported as 8.5 µM (active) and the IC50 (cells [15]) is reported as 56.8 µM (inactive).

With COc1cccc(Nc2nc(C(C)N)cs2)n1 (stereo unspecified) the IC50 (cells [16]) was > 29.9 µM (inactive), the EC50 [17] was 1.17 µM (active) and the IC50 [18] was 4.76 µM (active). The EC50 (cells [19]) was > 29.9 µM (inactive).

In the case of C/C(NCc1cccnc1)=C1/C(=O)NC(=O)N(c2ccc(C)cc2)C1=O, the IC50 (Major prion protein) is reported as 10.2 µM (inactive) and the IC50 (cells [15]) is reported as > 138 µM (inactive).

With CC(C)(C)C(=O)Nc1nnc(SCC(=O)NCc2cccs2)s1 the IC50 (Beta-lactamase [20]) was > 59.6 µM (inactive), the IC50 (Beta-lactamase [21]) was > 59.6 µM (inactive) and the IC50 (Beta-lactamase [22]) was > 59.6 µM (inactive). For the same compound, the AC50 (Cytochrome P450 2C19) was 3.16 µM (inconclusive), the AC50 (Cytochrome P450 1A2) was 22.4 µM (inconclusive) and the AC50 (Cytochrome P450 3A4) was 25.1 µM (inconclusive).

In the case of CN(C)CCCN=c1cc(-c2ccccc2)oc2ccc(Cl)cc12, the AC50 [4] is reported as 4.38 µM (active).

With CN(C)CCNC(=O)c1ccc(Cl)c2cc3ccccc3nc12 the AC50 [23] was 9.85 µM (active), the AC50 [24] was 4.37 µM (active) and the AC50 [25] was 24 µM (active). For the same compound, the AC50 [4] was 0.846 µM (active), the EC50 (HEK293 [26]) was > 2.21 µM (active) and the EC50 (HEK293 [27]) was > 59.7 µM (inactive).

In the case of COC(=O)CSc1nc(COc2ccccc2)nc2ccccc12, the EC50 [28] is reported as > 112 µM (not active), the EC50 [29] is reported as > 112 µM (not active) and the IC50 (Major prion protein) is reported as 8.48 µM (active). For the same compound, the IC50 (cells [15]) was > 138 µM (inactive).

In the case of C=CCN1C(=O)C2(C(C(=O)c3ccc4c(c3)OCCO4)=C(O)C(=O)N2CCCOC)c2ccccc21 (stereo unspecified), the Ki (fMet-Leu-Phe receptor) is reported as > 66.7 µM (inactive).

In the case of N=C(N/N=C\c1ccc(F)cc1)N/N=C\c1ccc(F)cc1, the AC50 [30] is reported as 5.38 µM (active), the IC50 (cells [16]) is reported as > 29.9 µM (inactive) and the EC50 [17] is reported as 1.75 µM (active). For the same compound, the IC50 [18] was 4.9 µM (active) and the EC50 (cells [19]) was 26.1 µM (inactive).

For c1ccc(C2CNCCc3ccccc32)cc1 (stereo unspecified), the IC50 (cells [16]) was > 29.9 µM (inactive), the EC50 [17] was 1.41 µM (active) and the IC50 [18] was 3.36 µM (active). The EC50 (cells [19]) was > 29.9 µM (inactive).

For Nc1[nH]c(C(=O)c2ccc(Br)cc2)c(-c2ccc(Cl)cc2[N+](=O)[O-])c1C(=O)NCCc1c[nH]c2ccccc12, the IC50 [8] was > 69.5 µM (inactive) and the IC50 [10] was 9.24 µM (active).
